Measurements taken from PMC3383642 (Nature, 2012).
Values joined by “and” are separate entries in the source; they are usually repeats but may differ in a detail not shown here. Equal values may be shown once. Read-outs that look alike come from different tables or passages of the source.

Legend:
[1] = system: platelet aggregation in whole human blood; test: Collagen-induced platelet aggregation in whole human blood; type: cell-based
[2] = molecular target: HRH1 (histamine receptor H1) (Homo sapiens, UniProt P35367); test: biochemical; type: binding
Chain of HRH1 (histamine receptor H1) (P35367 whole entry): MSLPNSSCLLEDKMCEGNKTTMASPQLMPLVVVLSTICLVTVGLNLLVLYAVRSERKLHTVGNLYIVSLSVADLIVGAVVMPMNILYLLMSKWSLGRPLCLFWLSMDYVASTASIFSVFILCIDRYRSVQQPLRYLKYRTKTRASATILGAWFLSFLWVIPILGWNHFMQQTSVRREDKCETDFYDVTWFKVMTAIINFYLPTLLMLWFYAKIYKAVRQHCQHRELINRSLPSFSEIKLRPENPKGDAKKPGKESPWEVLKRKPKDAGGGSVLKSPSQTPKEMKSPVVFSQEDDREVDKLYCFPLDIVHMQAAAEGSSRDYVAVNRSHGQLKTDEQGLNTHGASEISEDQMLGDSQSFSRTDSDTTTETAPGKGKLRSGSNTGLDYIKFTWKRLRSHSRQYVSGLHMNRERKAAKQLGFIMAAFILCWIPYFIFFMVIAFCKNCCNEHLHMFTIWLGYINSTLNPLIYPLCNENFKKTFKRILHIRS

PTGS1 (ovine COX-1) = molecular target: T1, PTGS1 (ovine COX-1) (Ovis aries, UniProt P05979); test: biochemical
T1 sequence (P05979 25-600): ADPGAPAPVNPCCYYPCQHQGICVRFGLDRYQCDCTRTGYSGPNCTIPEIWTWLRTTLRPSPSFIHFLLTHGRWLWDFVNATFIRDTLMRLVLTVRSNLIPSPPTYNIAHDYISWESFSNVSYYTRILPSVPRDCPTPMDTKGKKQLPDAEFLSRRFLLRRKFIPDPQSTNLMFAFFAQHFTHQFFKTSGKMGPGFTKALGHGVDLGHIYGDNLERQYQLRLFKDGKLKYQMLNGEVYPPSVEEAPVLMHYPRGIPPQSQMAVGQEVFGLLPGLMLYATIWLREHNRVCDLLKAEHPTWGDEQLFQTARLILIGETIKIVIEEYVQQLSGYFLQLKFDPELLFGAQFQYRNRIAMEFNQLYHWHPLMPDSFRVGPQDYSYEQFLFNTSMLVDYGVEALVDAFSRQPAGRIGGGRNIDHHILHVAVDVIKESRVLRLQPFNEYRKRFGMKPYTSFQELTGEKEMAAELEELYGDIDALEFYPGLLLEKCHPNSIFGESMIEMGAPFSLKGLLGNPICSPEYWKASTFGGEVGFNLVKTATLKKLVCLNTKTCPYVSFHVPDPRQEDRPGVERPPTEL

[3] = human plasma, ref Thompson Reuters Integrity, cited from earlier work; for AUC [μM*h] (median): median of reported values
[4] = molecular target: T2, PGR (progesterone receptor) (Homo sapiens, UniProt P06401); test: biochemical
T2 sequence (P06401 679-913 limits assumed): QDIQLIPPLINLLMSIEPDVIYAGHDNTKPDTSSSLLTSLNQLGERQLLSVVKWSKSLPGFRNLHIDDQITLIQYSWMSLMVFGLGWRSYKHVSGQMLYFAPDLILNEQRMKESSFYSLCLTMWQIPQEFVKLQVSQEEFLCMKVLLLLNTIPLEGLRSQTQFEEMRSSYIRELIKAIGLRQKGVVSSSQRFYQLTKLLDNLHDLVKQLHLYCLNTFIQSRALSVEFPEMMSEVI

[5] = molecular target: OPRM1 (opioid receptor, mu 1) (Homo sapiens, UniProt P35372); test: OPRM1 functional agonist assay; type: cell-based; details: Activity (μM) (median), target OPRM1; agonist per Figure S1E
Chain of OPRM1 (opioid receptor, mu 1) (P35372 whole entry): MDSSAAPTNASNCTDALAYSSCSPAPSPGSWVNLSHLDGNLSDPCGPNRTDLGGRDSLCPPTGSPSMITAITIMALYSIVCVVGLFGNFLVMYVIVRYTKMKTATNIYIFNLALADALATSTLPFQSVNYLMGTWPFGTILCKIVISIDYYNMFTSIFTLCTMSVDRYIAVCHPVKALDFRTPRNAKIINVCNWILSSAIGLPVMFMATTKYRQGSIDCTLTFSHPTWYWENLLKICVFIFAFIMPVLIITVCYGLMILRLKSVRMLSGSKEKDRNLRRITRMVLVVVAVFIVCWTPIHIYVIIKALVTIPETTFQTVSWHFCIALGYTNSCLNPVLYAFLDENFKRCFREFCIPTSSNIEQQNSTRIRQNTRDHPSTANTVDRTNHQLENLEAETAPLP

[6] = Homo sapiens, Platelet, read-out: inhibition of platelet aggregation

| Structure (SMILES) | AUC [μM*h] (median) [3] [µM·h] | AUC ([3]; range of reported values) [µM·h] | Cmax ([3]; range of reported values) [nM] | further results |
| --- | --- | --- | --- | --- |
| CC(=O)Oc1ccccc1C(=O)O [Acetylsalicylic acid] | – | – | – | inhibition at 250 µM [1, 6]: 42 to 48% |
| CCN(CC)CCCN(c1ccccc1)C1Cc2ccccc2C1 [Aprindine] | – | – | – | IC50 ([2]; IC50 [μM]): 0.78 µM |
| COc1ccc(C(Cl)=C(c2ccc(OC)cc2)c2ccc(OC)cc2)cc1 [Chlorotrianisene] | – | – | – | IC50 (PTGS1 (ovine COX-1)): 160 nM; potency of inhibition of platelet aggregation in whole blood ([1]; 0.5, 5 and 50 μM, collagen 1 μg/mL, compared with indomethacin): almost indistinguishable from that of indomethacin |
| CN(C)CCC=C1c2ccccc2C=Cc2ccccc21 [Cyclobenzaprine] | 0.69 | 0.16 to 4.10 | 10 to 130 | Cmax ([3]; read-out: median Cmax in plasma): 61 nM; IC50 ([2]; Activity (μM) (median)): 0.02 µM; IC50 ([2]; binding to histamine H1 receptor (HRH1), IC50): 0.021 µM and 0.02 µM |
| CN1CCN(C2=Nc3ccccc3Oc3ccc(Cl)cc32)CC1 [Loxapine] | 0.21 | 0.03 to 0.43 | 20 to 410 | – |
| C[C@H]1C[C@@H]2[C@H]([C@@H](O)C[C@@]3(C)[C@H]2CC[C@]3(O)C(=O)CO)[C@@]2(C)C=CC(=O)C=C12 [Methylprednisolone] | 1.28 | 0.09 to 10.76 | 60 to 2110 | EC50 [4]: 1300 nM |
| CC(Cc1ccccc1)NCCC(c1ccccc1)c1ccccc1 (centres unmarked) [Prenylamine] | – | 0.12 | 1200 | IC50 ([2]; Activity (μM) (median)): 7.87 µM; IC50 ([2]; IC50 [μM]): 7.9 µM |
| CNC(=C[N+](=O)[O-])NCCSCc1ccc(CN(C)C)o1 [Ranitidine] | 9.67 | 5.66 to 121.90 | 1140 to 9110 | – |
| CC(NCCc1ccc(O)cc1)C(O)c1ccc(O)cc1 (centres unmarked) [Ritodrine] | 0.11 | 0.03 to 0.32 | 10 to 150 | EC50 [5]: 9.18 µM |
| COc1ccc2c(c1)c(CC(=O)O)c(C)n2C(=O)c1ccc(Cl)cc1 [indomethacin] | – | – | – | inhibition at 50 µM [1, 6]: 50% |
